Molecules are shown by their SMILES.

From patent publication US9522914B2, “Azole derivative” (TAISHO PHARMACEUTICAL CO., LTD, priority 2011, dated 2016) come the findings set out here.

For the test, the target named is Human V1b receptor (Homo sapiens (Human), UniProt P47901). In words: Binding Test for V1b Receptor ([3H]AVP, crude membrane preparation of 293FT cells). The conditions noted are these: inhibition of [3H]AVP binding (0.4 to 1 nmol/L), room temperature, 60 minutes. The method, then: Binding Test for V1b Receptor
Chain of Human V1b receptor (P47901 whole entry): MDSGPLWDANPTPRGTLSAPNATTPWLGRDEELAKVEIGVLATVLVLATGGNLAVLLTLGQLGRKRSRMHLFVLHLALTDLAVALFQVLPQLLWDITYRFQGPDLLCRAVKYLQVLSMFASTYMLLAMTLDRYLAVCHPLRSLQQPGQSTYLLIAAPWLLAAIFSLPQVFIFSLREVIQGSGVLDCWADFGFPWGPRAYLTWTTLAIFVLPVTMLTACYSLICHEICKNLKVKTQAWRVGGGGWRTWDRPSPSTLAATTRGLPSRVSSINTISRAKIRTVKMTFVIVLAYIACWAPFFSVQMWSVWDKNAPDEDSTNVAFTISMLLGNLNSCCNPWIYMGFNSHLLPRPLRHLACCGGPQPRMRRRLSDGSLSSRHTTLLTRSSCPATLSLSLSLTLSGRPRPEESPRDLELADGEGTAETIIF
Human V1b receptor was transiently expressed in 293FT cells (Invitrogen). The cells were collected and then homogenated in a 15 mmol/L tris-hydrochloric acid buffer (pH 7.4 and containing 2 mmol/L magnesium chloride, 0.3 mmol/L ethylenediaminetetracetic acid, and 1 mmol/L glycol ether diaminetetraacetic acid). The resulting homogenate was centrifuged at 50,000×g at 4° C. for 20 minutes. The precipitate was resuspended in a 75 mmol/L tris-hydrochloric acid buffer (pH 7.4 and containing 12.5 mmol/L magnesium chloride, 0.3 mmol/L ethylenediaminetetracetic acid, 1 mmol/L glycol ether diaminetetraacetic acid, and 250 mmol/L sucrose) to give a crude membrane preparation, which was stored at −80° C. until the binding test was initiated. In the binding test, the crude membrane preparation was diluted with a 50 mmol/L tris-hydrochloric acid buffer (pH 7.4 and containing 10 mmol/L magnesium chloride and 0.1% bovine serum albumin) and mixed with each test compound and [^3H]AVP (final concentration: 0.4 to 1 nmol/L), followed by incubation at room temperature for 60 minutes. The test compound was serially diluted with DMSO so that it would have final concentrations of 0.01 nmol/L to 1 μmol/L at the time of mixing. After the incubation, the mixture was suction filtered through a GF/C filter that was preliminarily impregnated with 0.3% polyethyleneimine. The GF/C filter was dried and after adding a scintillator, the residual radioactivity on the filter was measured using TopCount (PerkinElmer Inc.). The radioactivity in the presence of unlabeled AVP at […] was defined as 0%, and the radioactivity in the absence of unlabeled AVP was defined as 100%. A dose-response curve was plotted from radio activities in the presence of a test compound at various concentrations, and the 50% inhibitory concentration (IC50 value) of the test compound was calculated.
Consider `CC(C)NC(=O)Cn1cc(-c2ccc(CCN3CCCCC3)cc2)nc1-c1cccc(Cl)c1` [Example A-01, 2-[2-(3-chlorophenyl)-4-{4-[2-(piperidin-1-yl)ethyl]phenyl}-1H-imidazol-1-yl]-N-(propan-2-yl)acetamide], for which the IC50 was determined as 15 nM.

Turning to `CC(C)NC(=O)Cn1cc(-c2ccc(CCN3CC4(COC4)C3)cc2)nc1-c1cccc(Cl)c1` [Example A-03, 2-[2-(3-chlorophenyl)-4-{4-[2-(2-oxa-6-azaspiro[3.3]hept-6-yl)ethyl]phenyl}-1H-imidazol-1-yl]-N-(propan-2-yl)acetamide], the IC50 lay within 10 to 100 nM.

In turn, `CC(C)NC(=O)Cn1cc(-c2ccc(CCN3CCC(O)CC3)cc2)nc1-c1cccc(Cl)c1` [Example A-04, 2-[2-(3-chlorophenyl)-4-{4-[2-(4-hydroxypiperidin-1-yl)ethyl]phenyl}-1H-imidazol-1-yl]-N-(propan-2-yl)acetamide] displayed an IC50 of 10 to 100 nM.

`CC(C)NC(=O)Cn1cc(-c2ccc(CCN3CCCC(O)C3)cc2)nc1-c1cccc(Cl)c1` (stereo not drawn) [Example A-05, 2-[2-(3-chlorophenyl)-4-{4-[2-(3-hydroxypiperidin-1-yl)ethyl]phenyl}-1H-imidazol-1-yl]-N-(propan-2-yl)acetamide] showed an IC50 of 10 to 100 nM.

`CC(C)NC(=O)Cn1cc(-c2ccc(CCN3CCC(O)C3)cc2)nc1-c1cccc(Cl)c1` (stereo not drawn) [Example A-06, 2-[2-(3-chlorophenyl)-4-{4-[2-(3-hydroxypyrrolidin-1-yl)ethyl]phenyl}-1H-imidazol-1-yl]-N-(propan-2-yl)acetamide] gave an IC50 of 10 to 100 nM.

Regarding `CC(C)NC(=O)Cn1cc(-c2ccc(CCN3CCC(CO)C3)cc2)nc1-c1cccc(Cl)c1` (stereo not drawn) [Example A-07, 2-[2-(3-chlorophenyl)-4-(4-{2-[3-(hydroxymethyl)pyrrolidin-1-yl]ethyl}phenyl)-1H-imidazol-1-yl]-N-(propan-2-yl)acetamide], the IC50 came to 18 nM.

For the compound `CC(C)NC(=O)Cn1cc(-c2ccc(CCN3C4CCC3COC4)cc2)nc1-c1cccc(Cl)c1` [Example A-08, 2-[2-(3-chlorophenyl)-4-{4-[2-(3-oxa-8-azabicyclo[3.2.1]oct-8-yl)ethyl]phenyl}-1H-imidazol-1-yl]-N-(propan-2-yl)acetamide], the IC50 worked out at 0.82 nM.

Regarding `COc1cc(-c2nc(-c3ccc(CCN4CCCCC4)cc3)cn2CC(=O)NC(C)C)ccc1F` [Example A-09, 2-[2-(4-fluoro-3-methoxyphenyl)-4-{4-[2-(piperidin-1-yl)ethyl]phenyl}-1H-imidazol-1-yl]-N-(propan-2-yl)acetamide], the half-inhibitory concentration (IC50) amounted to 16 nM.

The compound `COc1cc(-c2nc(-c3ccc(CCN4CCOCC4)cc3)cn2CC(=O)NC(C)C)ccc1F` [Example A-10, 2-[2-(4-fluoro-3-methoxyphenyl)-4-{4-[2-(morpholin-4-yl)ethyl]phenyl}1H-imidazol-1-yl]-N-(propan-2-yl)acetamide] came in with an IC50 of 3.7 nM.

In turn, `COc1cc(-c2nc(-c3ccc(CCN4CCCC4)cc3)cn2CC(=O)NC(C)C)ccc1F` [Example A-11, 2-[2-(4-fluoro-3-methoxyphenyl)-4-{4-[2-(pyrrolidin-1-yl)ethyl]phenyl}-1H-imidazol-1-yl]-N-(propan-2-yl)acetamide] had an IC50 of 10 nM. Against the preceding compound, the IC50 is about 2.7-fold higher.

`COc1cc(-c2nc(-c3ccc(CCN4CCC[C@H]4C)cc3)cn2CC(=O)NC(C)C)ccc1F` [Example A-12, 2-[2-(4-fluoro-3-methoxyphenyl)-4-(4-{2-[(2R)-2-methylpyrrolidin-1-yl]ethyl}phenyl)-1H-imidazol-1-yl]-N-(propan-2-yl)acetamide] gave an IC50 of 17 nM.

With `COc1cc(-c2nc(-c3ccc(CCN4CCCC(C#N)C4)cc3)cn2CC(=O)NC(C)C)ccc1F` (stereo not drawn) [Example A-13, 2-[4-{4-[2-(3-cyanopiperidin-1-yl)ethyl]phenyl}-2-(4-fluoro-3-methoxyphenyl)-1H-imidazol-1-yl]-N-(propan-2-yl)acetamide], the IC50 was in the range of 10 to 100 nM.

`COc1cc(-c2nc(-c3ccc(CCN4CCC(C#N)CC4)cc3)cn2CC(=O)NC(C)C)ccc1F` [Example A-14, 2-[4-{4-[2-(4-cyanopiperidin-1-yl)ethyl]phenyl}-2-(4-fluoro-3-methoxyphenyl)-1H-imidazol-1-yl]-N-(propan-2-yl)acetamide] showed an IC50 of 100 to 1000 nM.

`COc1cc(-c2nc(-c3ccc(CCN4C5CCC4CC(O)C5)cc3)cn2CC(=O)NC(C)C)ccc1F` (stereo not drawn) [Example A-15, 2-[2-(4-fluoro-3-methoxyphenyl)-4-{4-[2-(3-hydroxy-8-azabicyclo[3.2.1]oct-8-yl)ethyl]phenyl}-1H-imidazol-1-yl]-N-(propan-2-yl)acetamide]: the IC50 is 2.4 nM.

For `COc1cc(-c2nc(-c3ccc(CCN4CC(C#N)C4)cc3)cn2CC(=O)NC(C)C)ccc1F` [Example A-16, 2-[4-{4-[2-(3-cyanoazetidin-1-yl)ethyl]phenyl}-2-(4-fluoro-3-methoxyphenyl)-1H-imidazol-1-yl]-N-(propan-2-yl)acetamide], the IC50 lay in the range of 100 to 1000 nM.

As for `COc1cc(-c2nc(-c3ccc(CCN4CCC(OC)C4)cc3)cn2CC(=O)NC(C)C)ccc1F` (stereo not drawn) [Example A-17, 2-[2-(4-fluoro-3-methoxyphenyl)-4-{4-[2-(3-methoxypyrrolidin-1-yl)ethyl]phenyl}-1H-imidazol-1-yl]-N-(propan-2-yl)acetamide], the IC50 lay in the range of 10 to 100 nM.

As for `COc1cc(-c2nc(-c3ccc(CCN4CCCC(OC)C4)cc3)cn2CC(=O)NC(C)C)ccc1F` (stereo not drawn) [Example A-18, 2-[2-(4-fluoro-3-methoxyphenyl)-4-{4-[2-(3-methoxypiperidin-1-yl)ethyl]phenyl}-1H-imidazol-1-yl]-N-(propan-2-yl)acetamide], the IC50 came out at 19 nM.

`COc1cc(-c2nc(-c3ccc(CCN4CC(F)C4)cc3)cn2CC(=O)NC(C)C)ccc1F` [Example A-19, 2-[4-{4-[2-(3-fluoroazetidin-1-yl)ethyl]phenyl}-2-(4-fluoro-3-methoxyphenyl)-1H-imidazol-1-yl]-N-(propan-2-yl)acetamide] showed an IC50 of 10 to 100 nM.

`COc1cc(-c2nc(-c3ccc(CCN4CC(C)OC(C)C4)cc3)cn2CC(=O)NC(C)C)ccc1F` (stereo not drawn) [Example A-20, 2-[4-{4-[2-(2,6-dimethylmorpholin-4-yl)ethyl]phenyl}-2-(4-fluoro-3-methoxyphenyl)-1H-imidazol-1-yl]-N-(propan-2-yl)acetamide] showed an IC50 of 12 nM.

Regarding `COc1cc(-c2nc(-c3ccc(CCN4CCC(C)C4)cc3)cn2CC(=O)NC(C)C)ccc1F` (stereo not drawn) [Example A-21, 2-[2-(4-fluoro-3-methoxyphenyl)-4-{4-[2-(3-methylpyrrolidin-1-yl)ethyl]phenyl}-1H-imidazol-1-yl]-N-(propan-2-yl)acetamide], the IC50 turned out to be 3.2 nM.

`COc1cc(-c2nc(-c3ccc(CCN4C5CCC4COC5)cc3)cn2CC(=O)NC(C)C)ccc1F` [Example A-22, 2-[2-(4-fluoro-3-methoxyphenyl)-4-{4-[2-(3-oxa-8-azabicyclo[3.2.1]oct-8-yl)ethyl]phenyl}-1H-imidazol-1-yl]-N-(propan-2-yl)acetamide] yielded an IC50 of 2.6 nM. The IC50 values of the last two compounds are within 1.5-fold of each other.

In the case of `COc1cc(-c2nc(-c3ccc(CCN4CCCOCC4)cc3)cn2CC(=O)NC(C)C)ccc1F` [Example A-23, 2-[2-(4-fluoro-3-methoxyphenyl)-4-{4-[2-(1,4-oxazepan-4-yl)ethyl]phenyl}-1H-imidazol-1-yl]-N-(propan-2-yl)acetamide], the IC50 came out at 11 nM.

The compound `COc1cc(-c2nc(-c3ccc(CCN4CCC(OC)CC4)cc3)cn2CC(=O)NC(C)C)ccc1F` [Example A-24, 2-[2-(4-fluoro-3-methoxyphenyl)-4-{4-[2-(4-methoxypiperidin-1-yl)ethyl]phenyl}-1H-imidazol-1-yl]-N-(propan-2-yl)acetamide] had an IC50 of 10 to 100 nM.

`COc1cc(-c2nc(-c3ccc(CCN4C(C)COCC4C)cc3)cn2CC(=O)NC(C)C)ccc1F` (stereo not drawn) [Example A-25, 2-[4-{4-[2-(3,5-dimethylmorpholin-4-yl)ethyl]phenyl}-2-(4-fluoro-3-methoxyphenyl)-1H-imidazol-1-yl]-N-(propan-2-yl)acetamide] returned an IC50 of 14 nM.

In the case of `CC(C)NC(=O)Cn1cc(-c2ccc(CCN3CCOCC3)cn2)nc1-c1cccc(Cl)c1` [Example A-26, 2-[2-(3-chlorophenyl)-4-{5-[2-(morpholin-4-yl)ethyl]pyridin-2-yl}-1H-imidazol-1-yl]-N-(propan-2-yl)acetamide], the IC50 was 3.4 nM.

`CC(C)NC(=O)Cn1cc(-c2ccc(CCN3C4CCC3COC4)cn2)nc1-c1cccc(Cl)c1` [Example A-27, 2-[2-(3-chlorophenyl)-4-{5-[2-(3-oxa-8-azabicyclo[3.2.1]oct-8-yl)ethyl]pyridin-2-yl}-1H-imidazol-1-yl]-N-(propan-2-yl)acetamide] registered an IC50 of 3.6 nM.

`COc1cccc(-c2nc(-c3ccc(CCN4CCCCC4)cc3)cn2CC(=O)NC(C)C)n1` [Example A-28, 2-[2-(6-methoxypyridin-2-yl)-4-{4-[2-(piperidin-1-yl)ethyl]phenyl}-1H-imidazol-1-yl]-N-(propan-2-yl)acetamide]: the half-maximal inhibitory concentration (IC50) was 10 to 100 nM.

For orientation: IC50 means the concentration that gives 50% inhibition.
